Measured values: US20080009418A1, “Selective Inhibitors” (Alchemia LTD., priority 2004, published 2008)

Legend:
Details in all cases: compound at 10 μM
[1] = molecular target: T1, Human δ-opioid (DOP) (Homo sapiens, UniProt P41143); experiment: Radioligand binding, human δ-opioid (DOP) membranes, FlashPlate, [3H]-Bremazocine
T1 construct: purchased Perkin Elmer Biosignal
Method in brief: (§1)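 Cloned human receptor membranes were coated onto FlashPlate wells and incubated with radioligand and compound (added from a 0.5 mM DMSO daughter plate) for 1 hour at room temperature in the dark. Scintillation counting gave percent inhibition, with DMSO defining total and reference ligand defining non-specific binding.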

[2] = molecular target: T2, Human κ-Opioid (KOP) (Homo sapiens, UniProt P41145); experiment: Radioligand binding, human κ-opioid (KOP) membranes, filtration, [3H]-Diprenorphine
T2 construct: purchased Perkin Elmer Biosignal
Method in brief: (§2)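 Membranes from cloned human receptors were incubated with compound and radioligand for 1 hour at room temperature. Bound ligand was collected on 0.3% PEI-soaked filters, washed with cold 50 mM Tris-HCl pH 7.4, and counted by scintillation. Percent inhibition was computed against DMSO totals and reference-ligand nonspecific wells.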

[3] = molecular target: T3, Human Melanocortin (MC3) (Homo sapiens, UniProt P41968); experiment: Radioligand binding, human melanocortin MC3 membranes, FlashPlate, [125I]-NDP-αMSH
T3 construct: purchased Perkin Elmer Biosignal
Method in brief: as §1

[4] = molecular target: T4, Human Melanocortin (MC4) (Homo sapiens, UniProt P32245); experiment: Radioligand binding, human melanocortin MC4 membranes, FlashPlate, [125I]-NDP-αMSH
T4 construct: purchased Perkin Elmer Biosignal
Method in brief: as §1

[5] = molecular target: T5, Human melanocortin (MC5) (Homo sapiens, UniProt P33032); experiment: Radioligand binding, human melanocortin MC5 membranes, FlashPlate, [125I]-NDP-αMSH
T5 construct: purchased Perkin Elmer Biosignal
Method in brief: as §1

[6] = molecular target: T6, Human melanin-concentrating hormone (MCH1) (Homo sapiens, UniProt Q99705); experiment: Radioligand binding, human melanin-concentrating hormone MCH1 membranes, FlashPlate, [125I]-S36057
T6 construct: purchased Perkin Elmer Biosignal
Method in brief: as §1

[7] = molecular target: T7, Human μ-opioid (MOP) (Homo sapiens, UniProt P35372); experiment: Radioligand binding, human μ-opioid (MOP) membranes, FlashPlate, [3H]-Naloxone
T7 construct: purchased Perkin Elmer Biosignal
Method in brief: as §1

[8] = molecular target: T8, Human neurokinin (NK1) (Homo sapiens, UniProt P25103); experiment: Radioligand binding, human neurokinin NK1 membranes, filtration, [125I]-Substance P
T8 construct: purchased Perkin Elmer Biosignal
Method in brief: as §2

[9] = molecular target: T9, Human neuropeptide Y (NPY-Y1) (Homo sapiens, UniProt P25929); experiment: Radioligand binding, human neuropeptide Y NPY-Y1 membranes, FlashPlate, [125I]-PYY
T9 construct: purchased Perkin Elmer Biosignal
T9 sequence (P25929 1-384): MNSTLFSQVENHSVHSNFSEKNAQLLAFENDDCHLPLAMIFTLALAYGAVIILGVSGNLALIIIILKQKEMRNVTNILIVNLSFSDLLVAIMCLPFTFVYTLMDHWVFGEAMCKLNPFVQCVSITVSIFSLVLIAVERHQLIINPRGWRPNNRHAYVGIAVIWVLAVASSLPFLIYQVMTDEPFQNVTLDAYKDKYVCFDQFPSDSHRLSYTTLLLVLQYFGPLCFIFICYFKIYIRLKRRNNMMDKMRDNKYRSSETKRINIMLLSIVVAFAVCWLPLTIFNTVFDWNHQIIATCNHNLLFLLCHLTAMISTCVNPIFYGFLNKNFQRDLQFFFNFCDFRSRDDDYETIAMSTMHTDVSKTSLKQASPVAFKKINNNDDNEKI
Method in brief: as §1

[10] = molecular target: T10, Human opioid (ORL1) (Homo sapiens, UniProt P41146); experiment: Radioligand binding, human opioid ORL1 membranes, FlashPlate, [125I]-Nociceptin
T10 construct: purchased Perkin Elmer Biosignal
Method in brief: as §1

[11] = molecular target: T11, Mouse urotensin (mUR2) (Mus musculus, UniProt Q8VIH9); experiment: Radioligand binding, mouse urotensin mUR2 membranes, FlashPlate, [125I]-Urotensin II
T11 construct: purchased Perkin Elmer Biosignal
T11 sequence (Q8VIH9 1-385): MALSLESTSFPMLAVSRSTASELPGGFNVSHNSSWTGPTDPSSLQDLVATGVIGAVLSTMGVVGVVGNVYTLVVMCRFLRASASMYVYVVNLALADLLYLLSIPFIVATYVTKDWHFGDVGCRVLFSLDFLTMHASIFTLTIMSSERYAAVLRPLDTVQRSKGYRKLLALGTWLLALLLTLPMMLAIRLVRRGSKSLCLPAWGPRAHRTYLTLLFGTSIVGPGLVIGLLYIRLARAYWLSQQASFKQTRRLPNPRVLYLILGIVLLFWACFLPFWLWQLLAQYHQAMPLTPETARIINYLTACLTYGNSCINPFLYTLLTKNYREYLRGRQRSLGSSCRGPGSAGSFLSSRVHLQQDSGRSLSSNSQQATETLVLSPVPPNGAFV
Method in brief: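 Cloned mouse urotensin (mUR2) receptor membranes from Perkin Elmer Biosignal were immobilized in FlashPlate microplates using a proprietary coating. Each well got 19.5 μl buffer, then 0.5 μl of DMSO, reference ligand, or compound. Adding 5 μl of [125I]-Urotensin II, diluted to 5× final concentration in binding buffer, started binding. Plates were sealed with TopSeal-A and incubated 1 hour at room temperature in the dark. Wells were counted for 30 seconds each on a TopCount after a 60-second delay, and percentage inhibition was calculated.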

T4 sequence (P32245 whole entry): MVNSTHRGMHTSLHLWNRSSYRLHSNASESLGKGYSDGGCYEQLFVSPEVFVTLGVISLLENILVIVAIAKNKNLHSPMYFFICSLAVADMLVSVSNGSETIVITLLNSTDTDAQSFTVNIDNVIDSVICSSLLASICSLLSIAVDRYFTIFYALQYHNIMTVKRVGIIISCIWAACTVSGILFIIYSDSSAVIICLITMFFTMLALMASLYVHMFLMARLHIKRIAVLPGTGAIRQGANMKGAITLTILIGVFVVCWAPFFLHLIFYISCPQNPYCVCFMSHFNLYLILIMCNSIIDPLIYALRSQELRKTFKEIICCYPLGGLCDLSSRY
T3 sequence (P41968 whole entry): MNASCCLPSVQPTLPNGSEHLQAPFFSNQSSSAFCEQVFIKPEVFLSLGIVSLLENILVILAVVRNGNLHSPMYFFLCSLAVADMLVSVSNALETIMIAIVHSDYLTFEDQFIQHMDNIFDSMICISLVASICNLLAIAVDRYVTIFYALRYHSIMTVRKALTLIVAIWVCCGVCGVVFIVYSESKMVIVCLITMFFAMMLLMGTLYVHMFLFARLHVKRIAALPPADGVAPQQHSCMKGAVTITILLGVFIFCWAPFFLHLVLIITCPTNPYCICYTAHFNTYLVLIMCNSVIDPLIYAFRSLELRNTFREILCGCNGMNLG
T8 sequence (P25103 whole entry): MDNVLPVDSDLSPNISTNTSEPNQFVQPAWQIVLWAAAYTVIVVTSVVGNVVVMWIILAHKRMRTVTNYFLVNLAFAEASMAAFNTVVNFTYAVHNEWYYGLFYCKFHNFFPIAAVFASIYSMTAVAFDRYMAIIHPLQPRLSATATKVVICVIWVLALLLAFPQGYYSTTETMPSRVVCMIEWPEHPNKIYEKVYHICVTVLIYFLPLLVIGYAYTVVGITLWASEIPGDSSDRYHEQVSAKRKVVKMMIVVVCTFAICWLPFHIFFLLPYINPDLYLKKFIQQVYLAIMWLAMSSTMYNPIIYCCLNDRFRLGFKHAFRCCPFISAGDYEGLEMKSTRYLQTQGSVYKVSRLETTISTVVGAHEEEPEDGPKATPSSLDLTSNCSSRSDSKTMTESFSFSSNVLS
T1 sequence (P41143 whole entry): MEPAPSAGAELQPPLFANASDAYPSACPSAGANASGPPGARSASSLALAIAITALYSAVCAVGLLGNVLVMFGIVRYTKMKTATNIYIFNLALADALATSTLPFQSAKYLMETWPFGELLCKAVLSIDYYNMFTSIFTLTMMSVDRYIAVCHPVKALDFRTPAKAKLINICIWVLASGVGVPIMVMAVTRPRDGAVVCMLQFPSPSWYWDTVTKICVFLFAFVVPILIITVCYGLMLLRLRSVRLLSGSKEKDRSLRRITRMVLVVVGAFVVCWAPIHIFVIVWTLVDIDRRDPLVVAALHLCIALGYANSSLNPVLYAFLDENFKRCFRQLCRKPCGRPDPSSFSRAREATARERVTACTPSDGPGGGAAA
T5 sequence (P33032 whole entry): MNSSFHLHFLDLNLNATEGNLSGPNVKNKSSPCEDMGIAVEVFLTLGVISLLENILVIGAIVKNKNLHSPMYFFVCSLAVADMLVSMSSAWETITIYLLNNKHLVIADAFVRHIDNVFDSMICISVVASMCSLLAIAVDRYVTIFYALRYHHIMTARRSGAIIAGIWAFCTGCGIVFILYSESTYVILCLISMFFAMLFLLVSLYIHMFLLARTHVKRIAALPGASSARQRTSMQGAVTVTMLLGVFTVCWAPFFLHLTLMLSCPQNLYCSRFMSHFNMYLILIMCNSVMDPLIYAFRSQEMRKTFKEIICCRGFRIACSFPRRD
T10 sequence (P41146 whole entry): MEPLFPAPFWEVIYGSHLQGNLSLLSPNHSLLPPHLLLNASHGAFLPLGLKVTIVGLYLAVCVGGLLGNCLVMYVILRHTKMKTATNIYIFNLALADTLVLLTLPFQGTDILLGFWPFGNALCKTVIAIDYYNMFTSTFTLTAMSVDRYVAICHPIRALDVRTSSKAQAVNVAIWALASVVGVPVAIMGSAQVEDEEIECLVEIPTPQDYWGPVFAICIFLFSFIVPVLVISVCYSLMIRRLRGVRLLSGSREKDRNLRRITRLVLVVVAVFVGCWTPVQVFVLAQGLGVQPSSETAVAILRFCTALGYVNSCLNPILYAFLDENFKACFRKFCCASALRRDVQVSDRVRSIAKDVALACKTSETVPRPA
T2 sequence (P41145 whole entry): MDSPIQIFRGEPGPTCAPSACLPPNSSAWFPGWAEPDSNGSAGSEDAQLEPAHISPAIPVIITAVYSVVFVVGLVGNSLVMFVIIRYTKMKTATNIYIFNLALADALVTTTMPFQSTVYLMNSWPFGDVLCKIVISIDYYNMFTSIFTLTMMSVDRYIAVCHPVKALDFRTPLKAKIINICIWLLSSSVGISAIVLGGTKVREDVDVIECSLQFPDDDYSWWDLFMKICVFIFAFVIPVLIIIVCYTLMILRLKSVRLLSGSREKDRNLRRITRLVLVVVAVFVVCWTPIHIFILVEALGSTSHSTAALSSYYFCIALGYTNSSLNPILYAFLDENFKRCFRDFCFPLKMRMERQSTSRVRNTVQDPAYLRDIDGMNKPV
T6 sequence (Q99705 whole entry): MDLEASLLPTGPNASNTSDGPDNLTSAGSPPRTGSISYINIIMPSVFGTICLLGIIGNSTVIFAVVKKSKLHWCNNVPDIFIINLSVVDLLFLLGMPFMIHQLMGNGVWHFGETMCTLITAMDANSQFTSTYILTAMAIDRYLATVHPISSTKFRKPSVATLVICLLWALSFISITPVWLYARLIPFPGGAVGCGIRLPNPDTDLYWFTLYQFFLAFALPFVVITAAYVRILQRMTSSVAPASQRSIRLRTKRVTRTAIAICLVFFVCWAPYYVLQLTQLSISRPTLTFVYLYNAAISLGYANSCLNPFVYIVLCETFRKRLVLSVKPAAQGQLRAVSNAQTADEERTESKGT
T7 sequence (P35372 whole entry): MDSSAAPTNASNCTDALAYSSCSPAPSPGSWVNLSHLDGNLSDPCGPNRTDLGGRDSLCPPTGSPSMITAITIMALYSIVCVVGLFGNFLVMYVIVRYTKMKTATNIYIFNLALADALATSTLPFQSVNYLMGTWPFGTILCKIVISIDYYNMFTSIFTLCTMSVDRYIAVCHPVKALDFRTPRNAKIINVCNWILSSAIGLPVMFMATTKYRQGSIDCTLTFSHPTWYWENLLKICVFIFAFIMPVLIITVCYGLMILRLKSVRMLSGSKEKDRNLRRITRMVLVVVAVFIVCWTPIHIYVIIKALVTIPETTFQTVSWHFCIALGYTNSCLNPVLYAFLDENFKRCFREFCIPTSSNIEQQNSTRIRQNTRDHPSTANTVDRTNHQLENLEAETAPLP

## CO[C@H]1[C@H](O)[C@@H](COCc2ccc(-c3ccccc3)cc2)OC(OCc2ccccc2)[C@@H]1NC(=O)CNC(=N)N (stereo partly shown) [compound 82]
[1]; human δ-opioid (DOP) membranes
  A1 radioligand binding inhibition: − (“−” indicates less than 50% inhibition at 10 μM)
[2]; human κ-opioid (KOP) membranes
  A2 radioligand binding inhibition: − (“−” indicates less than 50% inhibition at 10 μM)
[3]; human melanocortin MC3 membranes
  A3 radioligand binding inhibition: − (“−” indicates less than 50% inhibition at 10 μM)
[4]; human melanocortin MC4 membranes
  A4 radioligand binding inhibition: + (“+” indicates greater than 50% inhibition at 10 μM)
[5]; human melanocortin MC5 membranes
  A5 radioligand binding inhibition: − (“−” indicates less than 50% inhibition at 10 μM)
[6]; human MCH1 membranes
  A6 radioligand binding inhibition: − (“−” indicates less than 50% inhibition at 10 μM)
[7]; human μ-opioid (MOP) membranes
  A7 radioligand binding inhibition: − (“−” indicates less than 50% inhibition at 10 μM)
[8]; human neurokinin NK1 membranes
  A8 radioligand binding inhibition: + (“+” indicates greater than 50% inhibition at 10 μM)
[9]; human NPY-Y1 membranes
  A9 radioligand binding inhibition: − (“−” indicates less than 50% inhibition at 10 μM)
[10]; human ORL1 membranes
  A10 radioligand binding inhibition: − (“−” indicates less than 50% inhibition at 10 μM)
[11]; mouse urotensin mUR2 membranes
  A11 radioligand binding inhibition: − (“−” indicates less than 50% inhibition at 10 μM)

## N=C(N)NCC(=O)NC1COC(COCc2ccc(Cl)cc2)C(O)C1OCc1ccc(Cl)cc1 (stereo not shown) [compound 539]
[1]; [3H]-Bremazocine
  A1: inhibition of radioligand binding, human δ-opioid (DOP): − (“−” indicates less than 50% inhibition at 10 μM)
[2]; [3H]-Diprenorphine
  A2: inhibition of radioligand binding, human κ-opioid (KOP): − (“−” indicates less than 50% inhibition at 10 μM)
[3]; [125I]-NDP-αMSH
  A3: inhibition of radioligand binding, human melanocortin (MC3): − (“−” indicates less than 50% inhibition at 10 μM)
[4]; [125I]-NDP-αMSH
  A4: inhibition of radioligand binding, human melanocortin (MC4): + (“+” indicates greater than 50% inhibition at 10 μM)
[5]; [125I]-NDP-αMSH
  A5: inhibition of radioligand binding, human melanocortin (MC5): − (“−” indicates less than 50% inhibition at 10 μM)
[6]; [125I]-S36057
  A6: inhibition of radioligand binding, human melanin-concentrating hormone (MCH1): − (“−” indicates less than 50% inhibition at 10 μM)
[7]; [3H]-Naloxone
  A7: inhibition of radioligand binding, human μ-opioid (MOP): − (“−” indicates less than 50% inhibition at 10 μM)
[8]; [125I]-Substance P
  A8: inhibition of radioligand binding, human neurokinin (NK1): + (“+” indicates greater than 50% inhibition at 10 μM)
[9]; [125I]-PYY
  A9: inhibition of radioligand binding, human neuropeptide Y (NPY-Y1): − (“−” indicates less than 50% inhibition at 10 μM)
[10]; [125I]-Nociceptin
  A10: inhibition of radioligand binding, human opioid (ORL1): − (“−” indicates less than 50% inhibition at 10 μM)
[11]; [125I]-Urotensin II
  A11: inhibition of radioligand binding, mouse urotensin (mUR2): − (“−” indicates less than 50% inhibition at 10 μM)

## COCC1OC(OCc2ccc3ccccc3c2)C(NC(=O)CCNC(=N)N)C(OCc2ccc3ccccc3c2)C1O (stereo not shown) [compound 249]
[1]; [3H]-Bremazocine, FlashPlate
  A1: inhibition of radioligand binding: − (“−” indicates less than 50% inhibition at 10 μM)
[2]; [3H]-Diprenorphine, filtration
  A2: inhibition of radioligand binding: − (“−” indicates less than 50% inhibition at 10 μM)
[3]; [125I]-NDP-αMSH, FlashPlate
  A3: inhibition of radioligand binding: + (“+” indicates greater than 50% inhibition at 10 μM)
[4]; [125I]-NDP-αMSH, FlashPlate
  A4: inhibition of radioligand binding: + (“+” indicates greater than 50% inhibition at 10 μM)
[5]; [125I]-NDP-αMSH, FlashPlate
  A5: inhibition of radioligand binding: + (“+” indicates greater than 50% inhibition at 10 μM)
[6]; [125I]-S36057, FlashPlate
  A6: inhibition of radioligand binding: + (“+” indicates greater than 50% inhibition at 10 μM)
[7]; [3H]-Naloxone, FlashPlate
  A7: inhibition of radioligand binding: + (“+” indicates greater than 50% inhibition at 10 μM)
[8]; [125I]-Substance P, filtration
  A8: inhibition of radioligand binding: + (“+” indicates greater than 50% inhibition at 10 μM)
[9]; [125I]-PYY, FlashPlate
  A9: inhibition of radioligand binding: − (“−” indicates less than 50% inhibition at 10 μM)
[10]; [125I]-Nociceptin, FlashPlate
  A10: inhibition of radioligand binding: − (“−” indicates less than 50% inhibition at 10 μM)
[11]; [125I]-Urotensin II, FlashPlate
  A11: inhibition of radioligand binding: − (“−” indicates less than 50% inhibition at 10 μM)

## CSC1OC(COCc2ccc(Cl)cc2)C(O)C(OCc2ccc3ccccc3c2)C1NC(=O)CCCN (stereo not shown) [compound 310]
[1]; [3H]-Bremazocine
  A1: inhibition of radioligand binding, human δ-opioid (DOP): − (“−” indicates less than 50% inhibition at 10 μM)
[2]; [3H]-Diprenorphine
  A2: inhibition of radioligand binding, human κ-opioid (KOP): − (“−” indicates less than 50% inhibition at 10 μM)
[3]; [125I]-NDP-αMSH
  A3: inhibition of radioligand binding, human melanocortin (MC3): − (“−” indicates less than 50% inhibition at 10 μM)
[4]; [125I]-NDP-αMSH
  A4: inhibition of radioligand binding, human melanocortin (MC4): − (“−” indicates less than 50% inhibition at 10 μM)
[5]; [125I]-NDP-αMSH
  A5: inhibition of radioligand binding, human melanocortin (MC5): − (“−” indicates less than 50% inhibition at 10 μM)
[6]; [125I]-S36057
  A6: inhibition of radioligand binding, human melanin-concentrating hormone (MCH1): − (“−” indicates less than 50% inhibition at 10 μM)
[7]; [3H]-Naloxone
  A7: inhibition of radioligand binding, human μ-opioid (MOP): − (“−” indicates less than 50% inhibition at 10 μM)
[8]; [125I]-Substance P
  A8: inhibition of radioligand binding, human neurokinin (NK1): + (“+” indicates greater than 50% inhibition at 10 μM)
[9]; [125I]-PYY
  A9: inhibition of radioligand binding, human neuropeptide Y (NPY-Y1): − (“−” indicates less than 50% inhibition at 10 μM)
[10]; [125I]-Nociceptin
  A10: inhibition of radioligand binding, human opioid (ORL1): − (“−” indicates less than 50% inhibition at 10 μM)
[11]; [125I]-Urotensin II
  A11: inhibition of radioligand binding, mouse urotensin (mUR2): − (“−” indicates less than 50% inhibition at 10 μM)

## COCC1OC(OCc2ccccc2)C(NC(=O)CNC(=N)N)C(OCc2ccccc2)C1O (stereo not shown) [compound 171]
[1]; [3H]-Bremazocine
  A1 radioligand binding, percentage inhibition: − (“−” indicates less than 50% inhibition at 10 μM)
[2]; [3H]-Diprenorphine
  A2 radioligand binding, percentage inhibition: − (“−” indicates less than 50% inhibition at 10 μM)
[3]; [125I]-NDP-αMSH
  A3 radioligand binding, percentage inhibition: − (“−” indicates less than 50% inhibition at 10 μM)
[4]; [125I]-NDP-αMSH
  A4 radioligand binding, percentage inhibition: − (“−” indicates less than 50% inhibition at 10 μM)
[5]; [125I]-NDP-αMSH
  A5 radioligand binding, percentage inhibition: + (“+” indicates greater than 50% inhibition at 10 μM)
[6]; [125I]-S36057
  A6 radioligand binding, percentage inhibition: − (“−” indicates less than 50% inhibition at 10 μM)
[7]; [3H]-Naloxone
  A7 radioligand binding, percentage inhibition: − (“−” indicates less than 50% inhibition at 10 μM)
[8]; [125I]-Substance P
  A8 radioligand binding, percentage inhibition: + (“+” indicates greater than 50% inhibition at 10 μM)
[9]; [125I]-PYY
  A9 radioligand binding, percentage inhibition: − (“−” indicates less than 50% inhibition at 10 μM)
[10]; [125I]-Nociceptin
  A10 radioligand binding, percentage inhibition: − (“−” indicates less than 50% inhibition at 10 μM)
[11]; [125I]-Urotensin II
  A11 radioligand binding, percentage inhibition: − (“−” indicates less than 50% inhibition at 10 μM)
